# Reference: patent US20150141435A1, “2-PYRIDONE ANTIMICROBIAL COMPOSITIONS” (Emergent BioSolutions, priority 2010, published 2015)
# Counter-ions that a name gives are not always drawn. Like-named read-outs stand apart in the source and are kept apart here.
# Key:
# Type in all cases: cell-based
# [1] = tested on: S. aureus ATCC 43300 (MRSA, FQ-S); assay: MIC, CLSI broth microdilution (Table 1); conditions: Staphylococcus aureus, read-out: MIC S. aureus ATCC 43300 (MRSA, FQ-S)
# [2] = tested on: S. maltophilia ATCC 17677; assay: MIC, CLSI broth microdilution (Table 2); conditions: Stenotrophomonas maltophilia
# S. pneumonia ATCC 49619 = assay: MIC, CLSI broth microdilution (Table 1); conditions: Streptococcus pneumoniae
# [3] = tested on: S. aureus BAA-1720 (MRSA, FQ-R); assay: MIC, CLSI broth microdilution (Table 1); conditions: Staphylococcus aureus; Gram positive; MHB, 37° C., 16-20 hours; read-out: MIC S. aureus BAA-1720 (MRSA, FQ-R)
# K. pneumoniae ATCC 33495 = assay: MIC, CLSI broth microdilution (Table 2); conditions: Klebsiella pneumoniae
# H. influenzae ATCC 49247 = assay: MIC, CLSI broth microdilution (Table 2); conditions: Haemophilus influenzae
# E. faecium ATCC 19434 = assay: MIC, CLSI broth microdilution (Table 1); conditions: Enterococcus faecium
# A. baumannii ATCC 19606 = assay: MIC, CLSI broth microdilution (Table 2); conditions: Acinetobacter baumannii
# S. aureus ATCC 25923 = assay: MIC, CLSI broth microdilution (Table 1); conditions: Staphylococcus aureus
# P. aeruginosa ATCC 27853 = assay: MIC, CLSI broth microdilution (Table 2); conditions: Pseudomonas aeruginosa
# E. faecalis ATCC 29212 = assay: MIC, CLSI broth microdilution (Table 1); conditions: Enterococcus faecalis
# E. coli ATCC 25922 = assay: MIC, CLSI broth microdilution (Table 2); conditions: Escherichia coli
# [4] = Gram positive, MHB, 37° C., 16-20 hours
# [5] = ATCC17677, Gram negative, MHB, 37° C., 16-20 hours, read-out: MIC S. maltophilia ATCC 17677
# [6] = ATCC49619, Gram positive, MHB, 37° C., 16-20 hours, read-out: MIC S. pneumonia ATCC 49619
# [7] = ATCC33495, Gram negative, MHB, 37° C., 16-20 hours, read-out: MIC K. pneumoniae ATCC 33495
# [8] = ATCC49247, Gram negative, MHB, 37° C., 16-20 hours, read-out: MIC H. influenzae ATCC 49247
# [9] = ATCC19434, Gram positive, MHB, 37° C., 16-20 hours, read-out: MIC E. faecium ATCC 19434
# [10] = ATCC19606, Gram negative, MHB, 37° C., 16-20 hours, read-out: MIC A. baumannii B. ATCC 19606
# [11] = ATCC25923, Gram positive, MHB, 37° C., 16-20 hours, read-out: MIC S. aureus ATCC 25923
# [12] = ATCC27853, Gram negative, MHB, 37° C., 16-20 hours, read-out: MIC P. aeruginosa ATCC 27853
# [13] = ATCC29212, Gram positive, MHB, 37° C., 16-20 hours, read-out: MIC E. faecalis ATCC 29212
# [14] = ATCC25922, Gram negative, MHB, 37° C., 16-20 hours, read-out: MIC E. coli ATCC 25922
# [15] = ATCC17677, read-out: MIC S. maltophilia ATCC 17677
# [16] = ATCC49619, read-out: MIC S. pneumonia ATCC 49619
# [17] = ATCC33495, read-out: MIC K. pneumoniae ATCC 33495
# [18] = ATCC49247, read-out: MIC H. influenzae ATCC 49247
# [19] = ATCC19606, read-out: MIC A. baumannii B. ATCC 19606
# [20] = ATCC25923, read-out: MIC S. aureus ATCC 25923
# [21] = ATCC29212, read-out: MIC E. faecalis ATCC 29212
# [22] = ATCC25922, read-out: MIC E. coli ATCC 25922
SMILES,"MIC [1, 4] [µg/mL]","MIC [2, 5] [µg/mL]",MIC (S. pneumonia ATCC 49619; [6]) [µg/mL],MIC [3] [µg/mL],MIC (K. pneumoniae ATCC 33495; [7]) [µg/mL],MIC (H. influenzae ATCC 49247; [8]) [µg/mL],MIC (E. faecium ATCC 19434; [9]) [µg/mL],MIC (A. baumannii ATCC 19606; [10]) [µg/mL],MIC (S. aureus ATCC 25923; [11]) [µg/mL],MIC (P. aeruginosa ATCC 27853; [12]) [µg/mL],MIC (E. faecalis ATCC 29212; [13]) [µg/mL],MIC (E. coli ATCC 25922; [14]) [µg/mL],other results
"Cc1c(-c2cccc(N)c2)c(F)cn2c(=O)c(C(=O)O)cc(C3CC3)c12 [Example 4 K salt, 8-(3-amino-phenyl)-1-cyclopropyl-7-fluoro-9-methyl-4-oxo-4H-quinolizine-3-carboxylic acid]",0.016,0.25,0.125,0.25,0.25,0.008,1,0.125,0.016,8,0.032,0.125,
"Cc1c(-c2ccc(N)cc2)c(F)cn2c(=O)c(C(=O)O)cc(C3CC3)c12 [Example 5 K salt, 8-(4-amino-phenyl)-1-cyclopropyl-7-fluoro-9-methyl-4-oxo-4H-quinolizine-3-carboxylic acid]",,,,,,,,,,,,,"MIC [1]: 0.008 µg/mL; MIC [2, 15]: 0.125 µg/mL; MIC (S. pneumonia ATCC 49619; [16]): 0.032 µg/mL; MIC (K. pneumoniae ATCC 33495; [17]): 0.125 to 0.25 µg/mL; MIC (H. influenzae ATCC 49247; [18]): ≤ 0.004 µg/mL; MIC (E. faecium ATCC 19434; ATCC19434, read-out: MIC E. faecium ATCC 19434): 0.5 µg/mL; MIC (A. baumannii ATCC 19606; [19]): 0.064 µg/mL; MIC (S. aureus ATCC 25923; [20]): 0.008 µg/mL; MIC (P. aeruginosa ATCC 27853; ATCC27853, read-out: MIC P. aeruginosa ATCC 27853): 2 µg/mL; MIC (E. faecalis ATCC 29212; [21]): 0.016 to 0.032 µg/mL; MIC (E. coli ATCC 25922; [22]): 0.064 µg/mL"
"Cc1c(-c2ccc(C(N)=O)cc2)c(F)cn2c(=O)c(C(=O)O)cc(C3CC3)c12 [Example 6 K salt, 8-(4-carbamoyl-phenyl)-1-cyclopropyl-7-fluoro-9-methyl-4-oxo-4H-quinolizine-3-carboxylic acid]",,,,,,,,,,,,,"MIC [1]: 0.008 µg/mL; MIC [2, 15]: 0.5 µg/mL; MIC (S. pneumonia ATCC 49619; [16]): 0.032 µg/mL; MIC (K. pneumoniae ATCC 33495; [17]): 0.5 µg/mL; MIC (H. influenzae ATCC 49247; [18]): ≤ 0.004 µg/mL; MIC (A. baumannii ATCC 19606; [19]): 0.5 µg/mL; MIC (S. aureus ATCC 25923; [20]): 0.008 to 0.016 µg/mL; MIC (E. faecalis ATCC 29212; [21]): 0.016 µg/mL; MIC (E. coli ATCC 25922; [22]): 0.125 µg/mL"
"Cc1c(-c2ccc(N)cc2F)ccn2c(=O)c(C(=O)O)cc(C3CC3)c12 [Example 7 K salt, 8-(4-amino-2-fluoro-phenyl)-1-cyclopropyl-9-methyl-4-oxo-4H-quinolizine-3-carboxylic acid]",0.008,0.25,0.032 to 0.064,0.25,0.125 to 0.25,0.008,0.5,0.125,0.008,4,0.032,0.064,
"Cc1c(-c2cccc(F)c2)ccn2c(=O)c(C(=O)O)cc(C3CC3)c12 [Example 10 K salt, 1-cyclopropyl-8-(3-fluoro-phenyl)-9-methyl-4-oxo-4H-quinolizine-3-carboxylic acid]",0.008,0.25 to 0.5,0.125,0.5,0.25,0.008,0.5,0.25,0.008,2,0.032,0.125,
"Cc1c(-c2ccc(N)c(Cl)c2)ccn2c(=O)c(C(=O)O)cc(C3CC3)c12 [Example 11 K salt, 8-(4-amino-3-chloro-phenyl)-1-cyclopropyl-9-methyl-4-oxo-4H-quinolizine-3-carboxylic acid]",≤ 0.004,0.125,0.032,0.125,0.125,≤ 0.004,0.25,0.064,≤ 0.004,2,0.016,0.064,
"COc1cc(-c2ccn3c(=O)c(C(=O)O)cc(C4CC4)c3c2C)ccc1N [Example 12 K salt, 8-(4-amino-3-methoxy-phenyl)-1-cyclopropyl-9-methyl-4-oxo-4H-quinolizine-3-carboxylic acid]",0.016,0.5,0.25,0.5 to 1,0.5,0.032,1,0.25 to 0.5,0.016 to 0.032,8,0.064,0.25,
"CC(=O)Nc1ccc(-c2ccn3c(=O)c(C(=O)O)cc(C4CC4)c3c2C)cc1 [Example 13 K salt, 8-(4-acetamido-phenyl)-1-cyclopropyl-9-methyl-4-oxo-4H-quinolizine-3-carboxylic acid]",0.008,0.5,0.032,0.25,0.5,0.016,0.5,0.5,0.008 to 0.016,8,0.016,0.125,
"Cc1c(-c2ccc(NS(C)(=O)=O)cc2)ccn2c(=O)c(C(=O)O)cc(C3CC3)c12 [Example 14 K salt, 1-cyclopropyl-9-methyl-8-(4-(methylsulfonamido)-phenyl)-4-oxo-4H-quinolizine-3-carboxylic acid]",0.016,1,0.125,0.5,1,0.016,8,0.5 to 1,0.016,> 8,0.064,0.25,
"CNc1ccc(-c2ccn3c(=O)c(C(=O)O)cc(C4CC4)c3c2C)cc1 [Example 15 K salt, 1-cyclopropyl-9-methyl-8-(4-(methylamino)-phenyl)-4-oxo-4H-quinolizine-3-carboxylic acid]",0.016,0.5,0.064,1,1,0.016 to 0.032,> 8,0.5 to 1,0.016,> 8,0.032,0.125,
